How the values were obtained:
Experiment in all cases: relative viability (nuclei count vs DMSO), 5 days (fraction); higher = more cells survive
[1] = compound: C=CC(=O)N1CCC[C@@H](n2nc(-c3ccc(Oc4ccccc4)cc3)c3c(N)ncnc32)C1 [Ibrutinib] + N=C(N)NC(=N)NCCc1ccccc1 [Phenformin] (partner 250 µM)
In short: (§1)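 The day after seeding in 1536-well plates, lung cancer cell lines were treated by pin tool with a single drug, or with a fixed anchor-drug dose together with five library-drug doses (not always all listed) in √10 steps. After 5 days, a combined fix-and-stain solution (final 0.05% Triton X-100, 1% formaldehyde, 1 ug/ml Hoechst) was added. Nuclei counted on 4× images gave relative viability as treated counts over vehicle counts, reported as the median of duplicate plates.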

[2] = compound: C=CC(=O)Nc1cc(-n2c(=O)ccc3cnc4ccc(-c5ccc(NS(C)(=O)=O)cc5)cc4c32)ccc1C [BMX-IN-1] + CS(=O)(=O)CCNCc1ccc(-c2ccc3ncnc(Nc4ccc(OCc5cccc(F)c5)c(Cl)c4)c3c2)o1 [Lapatinib] (partner 2 µM)
In short: as §1

[3] = compound: C=CCc1cccc(/C=N/NC(=O)CN2CCN(Cc3ccccc3)CC2)c1O [PAC-1] + N=C(N)NC(=N)NCCc1ccccc1 [Phenformin] (partner 250 µM)
In short: as §1

[4] = compound: C=CCc1cccc(/C=N/NC(=O)CN2CCN(Cc3ccccc3)CC2)c1O [PAC-1] + O=C(c1cc(Cc2n[nH]c(=O)c3ccccc23)ccc1F)N1CCN(C(=O)C2CC2)CC1 [Olaparib] (partner 8 µM)
In short: as §1

Cell Line	relative viability ([1]; first compound 0.005 µM)	relative viability ([1]; first compound 0.01581 µM)	relative viability ([1]; first compound 0.05 µM)	relative viability ([1]; first compound 0.1581 µM)	relative viability ([1]; first compound 0.5 µM)	relative viability ([2]; first compound 0.02 µM)	relative viability ([2]; first compound 0.2 µM)	relative viability ([2]; first compound 0.6325 µM)	relative viability ([2]; first compound 2 µM)	relative viability ([3]; first compound 0.02 µM)	relative viability ([3]; first compound 0.06325 µM)	relative viability ([3]; first compound 0.2 µM)	relative viability ([3]; first compound 2 µM)	relative viability ([4]; first compound 0.02 µM)	relative viability ([4]; first compound 0.06325 µM)	relative viability ([4]; first compound 0.2 µM)	relative viability ([4]; first compound 2 µM)
NCI-H2405	0.383	0.384	0.387	0.264	0.369	1.15	1.04	1.09	1.05	0.398	0.403	0.391	0.361	0.879	0.894	0.922	0.94
EBC-1						0.243	0.181	0.206	0.168					0.551	0.713	0.713	0.649
NCI-H1734	0.338	0.349	0.419	0.355	0.381	1.21	1.66	1.1	1.05	0.366	0.36	0.373	0.388	0.655	0.611	0.271	0.632
NCI-H2087	0.494	0.46	0.493		0.427	1.02	1.29	1.36	1.06	0.398	0.42	0.344	0.377	0.53	0.504	0.579	0.451
NCI-H1563	0.695	0.668	0.652	0.65	0.657	0.837	0.86	0.903	0.824	0.655	0.679	0.663	0.66				
SW 900			0.588	0.669	0.618					0.43	0.575	0.568	0.415		1.07	0.85	0.718
A549	0.21	0.135	0.159	0.163	0.152	1.04	1.47	1.17	1.02	0.22	0.167	0.139	0.171	0.344	0.353	0.285	0.477
NCI-H1793		0.313	0.281	0.318	0.282	0.755	1.22	0.72	0.872	0.327	0.376	0.355	0.353	0.682	0.855	0.7	0.628
EKVX	0.224	0.245	0.226	0.227	0.13	0.208	0.197	0.216	0.189	0.232	0.244	0.226	0.195	0.987	0.847	0.751	0.764
NCI-H2126	0.485	0.474	0.495	0.551	0.52	0.899	0.768	0.827	0.784	0.515	0.524	0.517	0.513	0.896	0.871	0.941	0.886
NCI-H1993	0.487	0.575	0.534	0.509	0.624	0.68	0.754		0.815	0.42	0.513	0.595	0.498	1.12	1.16	0.684	0.961
EPLC-272H	0.314	0.286	0.283	0.274	0.207	1.03	0.929	1.14	1.08	0.298	0.339	0.241	0.288	0.763	0.817	0.606	0.567
LU99A	0.889	0.8	0.837	1.05	0.846	1.15	1.04	0.981	0.913	0.824	0.761	0.908	0.874	0.247	0.282	0.271	0.257
NCI-H1299						1	0.986	1.06	0.962					0.947	0.933	0.937	0.895
HCC-78	0.541	0.787	0.575	0.616	0.559	0.812	0.835	0.663	0.878	0.8	0.639	0.809	0.759	0.8	0.893	0.874	0.827
HCC-15	0.571	0.477	0.524	0.408	0.53	0.933	0.955	0.985	0.984	0.466	0.487	0.457	0.491	0.644	0.775	0.69	0.771
201T	0.449	0.443	0.442	0.429	0.412	1.03	1.04	1.05	1.05	0.43	0.47	0.468	0.453	0.817	0.859	0.857	0.818

From the supplement of paper PMC10307832
